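Five concentrations, 48 hours, 96-well plates. GI50 marks 50% less growth.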 Activity calls are given as the source filed them. Cut-off read from the data, not from the text of the source: active = GI50 up to about 1.1 µM and inactive = higher.
Key:
Experiment in all cases: inhibition of tumour cell growth, NCI panel, 48 h
786-0 = test system: 786-0
COLO 205 = test system: COLO 205
EKVX = test system: EKVX
HCC 2998 = test system: HCC 2998
HOP-92 = test system: HOP-92
HT-29 = test system: HT-29
IGROV-1 = test system: IGROV-1
LOX IMVI = test system: LOX IMVI
M14 = test system: M14
MCF7 = test system: MCF7
MDA-MB-435 = test system: MDA-MB-435
NCI/ADR-RES = test system: NCI/ADR-RES
OVCAR-3 = test system: OVCAR-3
OVCAR-8 = test system: OVCAR-8
RPMI-8226 = test system: RPMI-8226
RXF 393 = test system: RXF 393
SNB-75 = test system: SNB-75
SW-620 = test system: SW-620
U-251 = test system: U-251

SMILES	GI50 (786-0)	GI50 (COLO 205)	GI50 (EKVX)	GI50 (HCC 2998)	GI50 (HOP-92)	GI50 (HT-29)	GI50 (IGROV-1)	GI50 (LOX IMVI)	GI50 (M14)	GI50 (MCF7)	GI50 (MDA-MB-435)	GI50 (NCI/ADR-RES)	GI50 (OVCAR-3)	GI50 (OVCAR-8)	GI50 (RPMI-8226)	GI50 (RXF 393)	GI50 (SNB-75)	GI50 (SW-620)	GI50 (U-251)
COc1ccc(C2=NN(C(=N)S)C(c3ccccc3)C2)cc1 (configuration not stated)	38.3 µM (inactive)	25.8 µM (inactive)	35.9 µM (inactive)	44.8 µM (inactive)	30.5 µM (inactive)	38.9 µM (inactive)	48.4 µM (inactive)	38.3 µM (inactive)	41 µM (inactive)	22.5 µM (inactive)	31 µM (inactive)	34.5 µM (inactive)	35.6 µM (inactive)	39.7 µM (inactive)	23.6 µM (inactive)	24.4 µM (inactive)	29 µM (inactive)	52.2 µM (inactive)	38.7 µM (inactive)
CCCCCCCCCCCCC/C=C(/COCC[N+](C)(C)C)OC(C)=O.CCCCCCCCCCCCCC/C(=C/OCC[N+](C)(C)C)OC(C)=O	1.08 µM (active)	1.48 µM (inactive)	3.1 µM (inactive)	4.04 µM (inactive)	1.16 µM (inactive)	0.356 µM (active)	1.69 µM (inactive)	0.377 µM (active)	2.5 µM (inactive)	1.9 µM (inactive)	2.58 µM (inactive)	17.6 µM (inactive)	1.61 µM (inactive)	0.944 µM (active)	1.3 µM (inactive)	0.716 µM (active)	2.54 µM (inactive)	2.92 µM (inactive)	1.19 µM (inactive)
Cc1ccc(S(=O)(=O)Oc2coc(CO)cc2=O)cc1	6.38 µM (inactive)	14.3 µM (inactive)	15.3 µM (inactive)	13.7 µM (inactive)	16 µM (inactive)	12.4 µM (inactive)	9.29 µM (inactive)	3.05 µM (inactive)	13.1 µM (inactive)	4.7 µM (inactive)	6.85 µM (inactive)	22.8 µM (inactive)	15.3 µM (inactive)	17.6 µM (inactive)	3.97 µM (inactive)	13.5 µM (inactive)	14.2 µM (inactive)	12.3 µM (inactive)	9.84 µM (inactive)
COc1ccc2c(c1)CN([C@@H](C)[C@H]1CC[C@H]3[C@@H]4CC[C@H]5C[C@@H](O)CC[C@]5(C)[C@H]4CC[C@]13C)CO2	1.3 µM (inactive)	2 µM (inactive)	3.36 µM (inactive)	1.61 µM (inactive)	1.74 µM (inactive)	0.964 µM (active)	3.95 µM (inactive)	1.58 µM (inactive)	1.57 µM (inactive)	3.7 µM (inactive)	1.75 µM (inactive)	3.37 µM (inactive)	5.79 µM (inactive)	2.71 µM (inactive)	0.541 µM (active)	1.19 µM (inactive)	2.37 µM (inactive)	2.92 µM (inactive)	1.62 µM (inactive)
COC(=O)c1ccc(Oc2nc3ccc(C(F)(F)F)cc3nc2-c2ccccc2)cc1	> 100 µM (inactive)	> 100 µM (inactive)	55.5 µM (inactive)	> 100 µM (inactive)	> 100 µM (inactive)	> 100 µM (inactive)	> 100 µM (inactive)	> 100 µM (inactive)	–	24.9 µM (inactive)	> 100 µM (inactive)	> 100 µM (inactive)	> 100 µM (inactive)	> 100 µM (inactive)	62.8 µM (inactive)	74.5 µM (inactive)	> 100 µM (inactive)	> 100 µM (inactive)	> 100 µM (inactive)
COc1cc([C@@H]2c3cc4c(cc3[C@@H](OC3OC5COC(C)OC5C(OC(=O)CN5CCN(C)CC5)C3OC(=O)CN3CCN(C)CC3)C3COC(=O)[C@@H]32)OCO4)cc(OC)c1OC(=O)CN1CCN(C)CC1 (some centres not stated)	21.9 µM (inactive)	> 100 µM (inactive)	> 100 µM (inactive)	32.1 µM (inactive)	> 100 µM (inactive)	> 100 µM (inactive)	72.3 µM (inactive)	36.5 µM (inactive)	55.8 µM (inactive)	10.8 µM (inactive)	> 100 µM (inactive)	29.9 µM (inactive)	> 100 µM (inactive)	60.8 µM (inactive)	–	> 100 µM (inactive)	28.5 µM (inactive)	41.8 µM (inactive)	26.9 µM (inactive)
C[C@@H]1C[C@@]2(O[C@@H]2C)C(=O)O[C@@H]2CCN3CC=C(COC(=O)[C@]1(C)O)[C@H]23	> 100 µM (inactive)	> 100 µM (inactive)	> 100 µM (inactive)	> 100 µM (inactive)	10.7 µM (inactive)	> 100 µM (inactive)	> 100 µM (inactive)	> 100 µM (inactive)	> 100 µM (inactive)	> 100 µM (inactive)	> 100 µM (inactive)	> 100 µM (inactive)	> 100 µM (inactive)	> 100 µM (inactive)	> 100 µM (inactive)	–	> 100 µM (inactive)	> 100 µM (inactive)	> 100 µM (inactive)
CC12O[C@]3([C@H](C(=O)N4CCOC43C)[C@H]1Cl)[C@H]1O[C@H]12 (some centres not stated)	> 100 µM (inactive)	24.6 µM (inactive)	> 100 µM (inactive)	> 100 µM (inactive)	> 100 µM (inactive)	> 100 µM (inactive)	> 100 µM (inactive)	> 100 µM (inactive)	> 100 µM (inactive)	> 100 µM (inactive)	> 100 µM (inactive)	> 100 µM (inactive)	> 100 µM (inactive)	> 100 µM (inactive)	94.8 µM (inactive)	–	> 100 µM (inactive)	> 100 µM (inactive)	> 100 µM (inactive)
CCOc1ccc2nc3nc(O)nc(C)c3c(NCCCN(CC)CC)c2c1	> 100 µM (inactive)	> 100 µM (inactive)	> 100 µM (inactive)	> 100 µM (inactive)	> 100 µM (inactive)	> 100 µM (inactive)	> 100 µM (inactive)	> 100 µM (inactive)	> 100 µM (inactive)	> 100 µM (inactive)	> 100 µM (inactive)	> 100 µM (inactive)	> 100 µM (inactive)	> 100 µM (inactive)	–	> 100 µM (inactive)	> 100 µM (inactive)	> 100 µM (inactive)	> 100 µM (inactive)
COc1cc(/C=C2\S/C(=N/Nc3nc(-c4ccc(Br)cc4)cs3)NC2=O)cc(OC)c1OC	9.44 µM (inactive)	26.8 µM (inactive)	7.8 µM (inactive)	16.3 µM (inactive)	3.63 µM (inactive)	18.4 µM (inactive)	12 µM (inactive)	9.29 µM (inactive)	15.6 µM (inactive)	15.4 µM (inactive)	15.5 µM (inactive)	15.9 µM (inactive)	13.6 µM (inactive)	14.5 µM (inactive)	–	4.07 µM (inactive)	9.2 µM (inactive)	8.55 µM (inactive)	2.99 µM (inactive)
CCOc1cc(/C=C2\N=C(c3ccccc3)N(c3nc4ccccc4s3)C2=O)ccc1O	61.1 µM (inactive)	–	> 100 µM (inactive)	25.1 µM (inactive)	> 100 µM (inactive)	64.1 µM (inactive)	28.6 µM (inactive)	37.2 µM (inactive)	44.9 µM (inactive)	33.3 µM (inactive)	40.1 µM (inactive)	24.3 µM (inactive)	46.8 µM (inactive)	34.7 µM (inactive)	21.6 µM (inactive)	> 100 µM (inactive)	51.2 µM (inactive)	47.9 µM (inactive)	47.9 µM (inactive)
C[C@@H](c1ccccc1)N(CC#N)[C@H]1CCC[C@]1(O)/C=C/c1ccc2c(c1)OCO2	> 25 µM (inactive)	> 25 µM (inactive)	> 25 µM (inactive)	> 25 µM (inactive)	> 25 µM (inactive)	> 25 µM (inactive)	> 25 µM (inactive)	> 25 µM (inactive)	> 25 µM (inactive)	5.65 µM (inactive)	> 25 µM (inactive)	> 25 µM (inactive)	–	> 25 µM (inactive)	> 25 µM (inactive)	> 25 µM (inactive)	> 25 µM (inactive)	–	> 25 µM (inactive)
Fc1ccc(C(OCCN2CCC3CCC(C2)N3C/C=C/c2ccco2)c2ccc(F)cc2)cc1 (configuration not stated)	9.4 µM (inactive)	1.69 µM (inactive)	–	4.94 µM (inactive)	4.62 µM (inactive)	–	6.5 µM (inactive)	11.2 µM (inactive)	5.5 µM (inactive)	10.2 µM (inactive)	10.7 µM (inactive)	7.4 µM (inactive)	11.4 µM (inactive)	5.83 µM (inactive)	4.2 µM (inactive)	4.4 µM (inactive)	15.1 µM (inactive)	7.96 µM (inactive)	8.59 µM (inactive)
CCc1c(Cc2cccc3ccccc23)n2c(nc1=O)SCC2OCCO (configuration not stated)	> 100 µM (inactive)	> 100 µM (inactive)	33.7 µM (inactive)	64.1 µM (inactive)	0.328 µM (active)	55.3 µM (inactive)	24.7 µM (inactive)	79.3 µM (inactive)	> 100 µM (inactive)	50.5 µM (inactive)	18.2 µM (inactive)	81.5 µM (inactive)	–	33.1 µM (inactive)	25.7 µM (inactive)	> 100 µM (inactive)	> 100 µM (inactive)	70.5 µM (inactive)	76.9 µM (inactive)
Cc1ccnc2c1ccc1nc3ccccc3n12	52.6 µM (inactive)	> 100 µM (inactive)	1.88 µM (inactive)	> 100 µM (inactive)	85.1 µM (inactive)	77.4 µM (inactive)	25.5 µM (inactive)	> 100 µM (inactive)	> 100 µM (inactive)	4.45 µM (inactive)	> 100 µM (inactive)	37.8 µM (inactive)	> 100 µM (inactive)	28.9 µM (inactive)	> 100 µM (inactive)	56.2 µM (inactive)	31.7 µM (inactive)	> 100 µM (inactive)	–

From ChEMBL document CHEMBL1201862, “PubChem BioAssay data set” (2004)
